Measured values as given in patent US10457947B2, “Targeting of human glucocorticoid receptor beta in cancer” (The University of Toledo, priority 2016, dated 2019).

Legend:
[1] = tested on: GRα; assay: Immunofluorescence of GRα in T24 cells; type: cell-based, human
Method: (§1) FIGS. 3A-3D: Dexamethasone and insulin treatment in T24 cells (FIGS. 3A-3B) and UMUC-3 cells (FIGS. 3C-3D). GRβ and GRα expression and location were measured using immunofluorescence with control (vehicle treatment), dexamethasone, or insulin treatments. Cells were seeded onto coverslips in media containing 10% dialyzed FBS for 24 hours before treating. Cells were treated with 100 nM insulin, 100 nM dexamethasone, or vehicle for 30 minutes. Secondary antibodies (labeling of human GRα or GRβ) are shown in green, DAPI (nuclei labeling) are shown in blue, a merge of the green and blue images are shown in panel 3 to represent localization, and a bright field image is shown in gray (scale bar=25 μm).
Cells were seeded onto a glass coverslip placed in a 6-well plate and grown were grown to desired confluence. Cells were then fixed with 3% paraformaldehyde, permeated with PBS containing 0.25% Triton X (PBST), and blocked with PBST containing 1% BSA. Slides were then stained with either anti-hGRα Rabbit IgG or anti-hGRβ Rabbit IgG antibodies obtained from Antibody Research. Secondary staining was performed using anti-Rb IgG 488 antibody from Life Technologies. Coverslips were planted onto slides with Fluoromount-G®, and DAPI was added to stain nuclei. Slides were magnified using a Leica Microscope with a 63X oil Immersion lens. […]

[2] = tested on: GRβ; assay: GRβ expression in A549 lung cancer cells; type: cell-based, human
From the text: (§2) FIG. 10: Sweet-P blocks GRβ expression in lung and prostate cancer cells.

[3] = tested on: GRβ; assay: Immunofluorescence of GRβ in T24 cells; type: cell-based, human
[4] = tested on: human GRβ mRNA; assay: GRβ mRNA expression by Real-Time PCR in T24 cells; type: cell-based
Method: The human uroepithelial carcinoma cell lines UMUC-3 and T24 (ATCC) were routinely cultured and maintained in Minimum Essential Medium (MEM) containing 10% fetal bovine serum (FBS) with 1% antibiotic-antimycotic. Cells were maintained at 37° C. and 5% CO2. Media was changed to MEM containing 10% Dialyzed-FBS with 1% antibiotic antimycotic 24 hours before hormone treatments.
A peptide nucleic acid (PNA) (Sweet-P) conjugated to a cell penetrating peptide (CPP) targeting the miR144 binding site in the 3′UTR of the human GRβ was designed using the PANAGENE® website (www.panagene.com). The Sweet-P targeting sequence was: (TGCCATACACAGTAT) [SEQ ID NO:1]. The Sweet-P sequence targeted the miR144 binding site in the 3′ UTR of human GRβ. (FIG. 7.) All PNAs were attached to an O-linker and a modified tat protein (VQRKRQKLMP) [SEQ ID NO:2] for delivery into the cell. Treatment with Sweet-P was performed for 48 hrs before the cells were analyzed.

[5] = biological target: T1, GRα (Homo sapiens, UniProt P04150); assay: GRα controlled gene expression by Real-Time PCR in T24 cells; type: cell-based; settings: Sweet-P 48 hours then 2 hours of dexamethasone
T1 construct: endogenous in cells; host or cells: T24 human uroepithelial carcinoma cells (ATCC)
T1 sequence (P04150 1-777): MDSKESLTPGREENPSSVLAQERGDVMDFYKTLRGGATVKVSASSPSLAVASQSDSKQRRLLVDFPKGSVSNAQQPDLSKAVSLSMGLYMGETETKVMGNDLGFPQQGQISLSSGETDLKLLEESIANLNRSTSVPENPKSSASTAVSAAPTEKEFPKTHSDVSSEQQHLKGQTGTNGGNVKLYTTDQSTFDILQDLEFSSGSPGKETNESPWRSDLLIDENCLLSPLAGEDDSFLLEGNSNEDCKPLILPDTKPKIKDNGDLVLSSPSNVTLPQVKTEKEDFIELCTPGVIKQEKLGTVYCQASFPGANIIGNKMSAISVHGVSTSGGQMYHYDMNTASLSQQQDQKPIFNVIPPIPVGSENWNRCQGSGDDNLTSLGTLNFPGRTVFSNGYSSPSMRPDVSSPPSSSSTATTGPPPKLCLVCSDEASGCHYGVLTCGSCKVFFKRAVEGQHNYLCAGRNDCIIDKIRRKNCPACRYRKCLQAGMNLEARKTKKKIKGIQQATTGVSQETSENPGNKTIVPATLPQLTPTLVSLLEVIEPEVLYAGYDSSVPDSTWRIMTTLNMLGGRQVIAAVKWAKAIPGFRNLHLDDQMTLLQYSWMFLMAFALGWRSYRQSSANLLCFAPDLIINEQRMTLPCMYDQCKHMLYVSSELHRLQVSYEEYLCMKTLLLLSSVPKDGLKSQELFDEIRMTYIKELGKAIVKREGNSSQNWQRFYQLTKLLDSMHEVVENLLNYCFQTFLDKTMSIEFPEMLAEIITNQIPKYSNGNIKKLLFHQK
Method: GRα controlled gene response was measured by Real-Time PCR for FKBP51, GILZ, p21, VEGFA, GRα, and GRβ. Cells were seeded in media containing 10% dialyzed FBS for 24 hours before treatment.
Total RNA was extracted from cell cultures using the 5-Prime PerfectPure® RNA Cell Kit (Fisher Scientific Company, LLC). Total RNA was read on a NanoDrop 2000® spectrophotometer (ThermoFisher Scientific, Wilmington, Del.) and cDNA was synthesized using High Capacity cDNA Reverse Transcription Kit (Applied Biosystems). PCR amplification of the cDNA was performed by quantitative real-time PCR using TrueAmp SYBR Green qPCR SuperMix® (Smart Bioscience). The thermocycling protocol consisted of 10 min at 95° C., 40 cycles of 15 sec at 95° C., 30 sec at 60° C., and 20 sec at 72° C., and finished with a melting curve ranging from 60-95° C. to allow distinction of specific products. Normalization was performed in separate reactions with primers to GAPDH.

[6] = tested on: E006AA cell lines; assay: Migration of E006AA-Par and E006AA-hT prostate cancer cells; type: cell-based, human
From the text: FIG. 15: Lentiviral shRNA suppression of human GRβ in E006AA-Par and E006AA-hT prostate cancer cells suppresses migration. *, P<0.05 and **, P<0.01 (scramble vs GRβ KD). N=12.

[7] = tested on: 3′UTR of human GRβ; assay: 3′UTR GRβ-Luc luciferase reporter assay in T24 cells; type: cell-based; settings: Sweet-P at 0.1 nM, 1.0 nM, and 10 nM, 48 hours, versus 0 nM
Method: For transient transfection, cells were plated on a 6-well or 12-well dish in MEM containing 10% FBS. Cells were washed with OPTI-MEM and transfected using GeneFect® (Alkali Scientific, Inc.), according to the manufacturer's […] protocol. OPTI-MEM was removed after 12 h and MEM containing 10% FBS was added.
The expression vector pMirTarget containing the 3′UTR of hGRβ (hGRβ 3′UTR-luc) was purchased from Origene. The binding sites were mutated using the QuikChange Lightning Multi Site-Directed Mutagenesis Kits® (Agilent Technologies). Successful mutations were confirmed through sequencing by Operon MWG. Cells were seeded onto a 12-well plate and grown overnight. Transient transfection was performed as described above. To determine the effect of Sweet-P on the T24 bladder cancer cells, the cells were treated 24 h after transfection for 48 hours post transfection, 3′UTR GRβ-Luc WT or mutant expression was measured by luciferase, and pRL-CMV Renilla reporter for normalization to transfection efficiency, using the Promega dual luciferase assay system (Promega, Madison, Wis.).
A peptide nucleic acid (PNA) (Sweet-P) conjugated to a cell penetrating peptide (CPP) targeting the miR144 binding site in the 3′UTR of the human GRβ was designed using the PANAGENE® website (www.panagene.com). […] Treatment with Sweet-P was performed for 48 hrs before the cells were analyzed.

[8] = tested on: mTOR; assay: Immunostaining of mTOR in T24 cells; type: cell-based, human; settings: 10 nM Sweet-P, 48 hours
[9] = tested on: PTEN; assay: Immunostaining of PTEN in T24 cells; type: cell-based, human; settings: 10 nM Sweet-P, 48 hours
[10] = tested on: GRβ; assay: GRβ expression in E006AA-Par prostate cancer cells; type: cell-based, human
From the text: as §2

[11] = tested on: T24 bladder cancer cells; assay: Scratch (wounding) migration assay in T24 cells; type: cell-based, human
Method: Cells were seeded on a 6-well plate and grown for 24 hours until a monolayer of 90% confluent cells was obtained. A scratch wound in the cell monolayer was introduced using a sterile pipette tip. Images were taken at the time of wounding, and every 5 hours thereafter. Migration was measured as the fold change of the width of the wound remaining. To determine miRNA and mRNA expression during the scratch (wounding assay), total RNA was collected using the miRNeasy® Mini Kit (Qiagen) (described above) at 0 and 3 hours after the migration.

[12] = tested on: GRα; assay: Immunofluorescence of GRα in UMUC-3 cells; type: cell-based, human; settings: 100 nM, 30 minutes, versus vehicle
Method: as §1, with “Cells were seeded onto coverslips in media containing 10% dialyzed FBS for 24 hours before treating.” left out
(§3) Cells were seeded onto a glass coverslip placed in a 6-well plate and grown were grown to desired confluence. […] Slides were then stained with either anti-hGRα Rabbit IgG or anti-hGRβ Rabbit IgG antibodies obtained from Antibody Research. […] Coverslips were planted onto slides with Fluoromount-G®, and DAPI was added to stain nuclei. Slides were magnified using a Leica Microscope with a 63X oil Immersion lens. Images were acquired in the XYZ plane in 1 μm steps with a 63X oil objective (NA 1.40). Images were acquired with the LAS AF® software in sequential scan mode. AlexaFluor488® was excited at 488 nm with collection at 500-558 nm and DAPI was excited with the multi-photon (MP) laser tuned to 790 nm with collection at 420-500 nm. Images are 2D projections of the of image stack as labeled. […]

[13] = tested on: T24 cells; assay: miRNA expression by Real-Time PCR in T24 cells; type: cell-based, human; settings: 100 nM Insulin, 2 hours
Method: FIGS. 8A-8B: […] ANOVA p<0.001; Bonferoni comparisons ***, […]=6). […] Total RNA was extracted from cell cultures using the miRNeasy® Mini Kit (Qiagen). […] The miScript Primer Assay® primers were purchased from Qiagen. Normalization was performed in separate reactions with primers to Hs_RNU6-2_11, At_U19_1, and Hs_SNORD61_11. The cloning vector pCMV-MIR containing the miR144 sequence was purchased from Origene. Cells were seeded on a 6-well plate, and transient transfection of the plasmid was completed as described above. After 48 hours-post transfection, RNA was harvested.

[14] = tested on: UMUC-3 cells; assay: miRNA expression by Real-Time PCR in UMUC-3 cells; type: cell-based, human; settings: 100 nM Insulin, 2 hours
Method: FIGS. 8A-8B: The effect of dexamethasone treatment on cell migration and miRNA expression in UMUC-3 and T24 bladder cancer cells. Migration was measured in the UMUC-3 and T24 cells that were treated with either vehicle or 100 nM dexamethasone for 30 minutes prior to wounding, and is presented as the fold-change in the wound width remaining (FIG. 8A). Images of the migration assay at […] post wounding are shown, with wound edges marked at T0 (black solid line) and T15 (white dashed line). ANOVA p<0.001; Bonferoni comparisons ***, p<0.0001 (versus Vehicle) (±S.E.; n=6). Total RNA was extracted from the UMUC3 and T24 cells after treating with either vehicle, 100 nM dexamethasone, or 100 nM Insulin in dialyzed media for 2 hours before harvesting, and miRNA expression was measured by Real-Time PCR (FIG. 8B). *, p<0.05; (Dex versus Veh); $, p<0.05; (Ins versus Veh); ##, p<0.01; ##, p<0.001; (T24 versus UMUC3) (±S.E.; n=6).
Total RNA was extracted from cell cultures using the miRNeasy® Mini Kit (Qiagen). Total RNA was read on a NanoDrop 2000® spectrophotometer (Thermo Fisher Scientific, Wilmington, Del.) and cDNA was synthesized using the miScript RT Kit (Qiagen). […] The miScript Primer Assay® primers were purchased from Qiagen. Normalization was performed in separate reactions with primers to Hs_RNU6-2_11, At_U19_1, and Hs_SNORD61_11.

[15] = tested on: GRβ; assay: Immunofluorescence of GRβ in UMUC-3 cells; type: cell-based, human; settings: 100 nM, 30 minutes
Method: as §1, with “Cells were seeded onto coverslips in media containing 10% dialyzed FBS for 24 hours before treating.” left out
as §3

[16] = 100 nM, 30 minutes, versus vehicle

In the case of “Sweet-P: PNA TGCCATACACAGTAT [SEQ ID NO:1] attached to an O-linker and modified tat protein VQRKRQKLMP, targeting the miR144 binding site in 3′UTR of human GRβ (all peptide nucleic acid (PNA); O-linker and modified tat peptide attached, position not given here)”, the GRα protein expression ([1]; 10 nM Sweet-P, 48 hours) is reported as “no effect”, the GRβ expression [2] is reported as “blocks” and the GRβ protein expression ([3]; 10 nM Sweet-P, 48 hours) is reported as “reduced”. For the same substance, the “GRβ mRNA expression” value ([4]; Sweet-P at 1.0 nM, 10 nM, 50 nM, and 100 nM, 48 hours, versus 0 nM) was “significantly (p<0.05) decreased”, the “FKBP51 expression (GRα activity)” value [5] was “enhancing expression” and the “tumor necrosis factor α (TNFα) expression (GRα activity)” value [5] was “decreasing”. For the same substance, the migration ([6]; E006AA-Par and E006AA-hT cells, Sweet-P) was “significantly decreased”, the “luciferase expression of the pMirTarget 3′ UTR hGRβ construct” value [7] was “significantly (p<0.001) reduced” and the mTOR protein expression [8] was “unaffected”. The PTEN protein expression [9] was “significantly (p<0.0001) increased”, the GRβ expression [10] was “blocks” and the “migration (wound width remaining)” value ([11]; T24 cells, 10 nM Sweet-P for 48 hours prior to wounding) was “significantly (ANOVA: p<0.001) inhibited”.
In the case of “GRβ shRNA: pGFP-C-shLenti lentiviral GRβ shRNA (CCAGAAAGCACATCTCACACATTAATCTG) [reference compound]”, the “knockdown of GRβ expression (reduction)” value ([4]; stable shRNA lentivirus, versus T24 Scramble) is reported as 64%, the migration ([6]; E006AA prostate cancer cells, lentiviral shRNA versus scramble) is reported as “significant reduction” and the migration ([11]; T24 GRβ shRNA cells versus T24 Scramble) is reported as “significant (ANOVA: p<0.001) decrease”.
“insulin: insulin, hormone treatment at 100 nM” was tested, and the “GRα expression (immunofluorescence)” value [1, 16] was “significantly decreased (p<0.001)”, the “GRα expression (immunofluorescence)” value [12] was “no effect” and the “expression of miR-33a, miR-144, miR-181a, miR-181b, miR-181c, or miR-181d” value [13] was “did not significantly change”. The GRβ localization ([3]; 100 nM, 30 minutes) was “no change”, the “GRβ expression (immunofluorescence)” value [3, 16] was “significantly increased” and the miR-181a expression [14] was “suppress”. The GRβ localization [15] was “higher in the nucleus” and the “GRβ expression (immunofluorescence)” value ([15]; versus vehicle) was “significantly increased”.
